Results reported in ChEMBL document CHEMBL3045475, “Sensitivity of Sclerotinia sclerotiorum from oilseed crops to boscalid in Jiangsu Province of China” (Crop Prot, 2009).
≈ marks a conversion by molar mass, not a printed value.

Assays:
Sclerotinia sclerotiorum [1] = assay: Antifungal activity against carbendazim-resistant and dimethachlon-resistant Sclerotinia sclerotiorum CZ57-1 assessed as inhibition of mycelial growth after 2 days; assay type: functional, organism-based; conditions: CZ57-1, 48 h
Sclerotinia sclerotiorum [2] = assay: Antifungal activity against carbendazim and dimethachlon-sensitive Sclerotinia sclerotiorum SZ47 assessed as inhibition of mycelial growth after 2 days; assay type: functional, organism-based; conditions: SZ47, 48 h
Sclerotinia sclerotiorum [3] = assay: Antifungal activity against Sclerotinia sclerotiorum in oilseed rape field assessed as disease control at 80/ha measured 1 week before harvest; assay type: functional
Sclerotinia sclerotiorum [4] = assay: Antifungal activity against carbendazim-resistant and dimethachlon-sensitive Sclerotinia sclerotiorum CZ57 assessed as inhibition of mycelial growth after 2 days; assay type: functional, organism-based; conditions: CZ57, 48 h
Sclerotinia sclerotiorum [5] = assay: Antifungal activity against Sclerotinia sclerotiorum in oilseed rape field assessed as disease control at 250/ha measured 1 week before harvest; assay type: functional
Sclerotinia sclerotiorum [6] = assay: Antifungal activity against carbendazim-resistant and dimethachlon-sensitive Sclerotinia sclerotiorum ZJ288 assessed as inhibition of mycelial growth after 2 days; assay type: functional, organism-based; conditions: ZJ288, 48 h
Sclerotinia sclerotiorum [7] = assay: Antifungal activity against carbendazim-resistant and dimethachlon-resistant Sclerotinia sclerotiorum ZJ288-1 assessed as inhibition of mycelial growth after 2 days; assay type: functional, organism-based; conditions: ZJ288-1, 48 h
Sclerotinia sclerotiorum [8] = assay: Antifungal activity against carbendazim-resistant and dimethachlon-sensitive Sclerotinia sclerotiorum ZJ44 assessed as inhibition of mycelial growth after 2 days; assay type: functional, organism-based; conditions: ZJ44, 48 h
Sclerotinia sclerotiorum [9] = assay: Antifungal activity against carbendazim-resistant and dimethachlon-resistant Sclerotinia sclerotiorum ZJ288-3 assessed as inhibition of mycelial growth after 2 days; assay type: functional, organism-based; conditions: ZJ288-3, 48 h
Sclerotinia sclerotiorum [10] = assay: Antifungal activity against Sclerotinia sclerotiorum in czapek medium assessed as inhibition of mycelial growth after 2 days; assay type: functional, organism-based; conditions: 48 h
Sclerotinia sclerotiorum [11] = assay: Antifungal activity against Sclerotinia sclerotiorum in synthetic medium assessed as inhibition of mycelial growth after 2 days; assay type: functional, organism-based; conditions: 48 h
Sclerotinia sclerotiorum [12] = assay: Antifungal activity against carbendazim and dimethachlon-sensitive Sclerotinia sclerotiorum SZ62 assessed as inhibition of mycelial growth after 2 days; assay type: functional, organism-based; conditions: SZ62, 48 h
Sclerotinia sclerotiorum [13] = assay: Antifungal activity against carbendazim-resistant and dimethachlon-resistant Sclerotinia sclerotiorum CZ57-3 assessed as inhibition of mycelial growth after 2 days; assay type: functional, organism-based; conditions: CZ57-3, 48 h
Sclerotinia sclerotiorum [14] = assay: Antifungal activity against Sclerotinia sclerotiorum in oilseed rape field assessed as disease control at 187.5/ha measured 1 week before harvest; assay type: functional
Sclerotinia sclerotiorum [15] = assay: Antifungal activity against carbendazim-resistant and dimethachlon-sensitive Sclerotinia sclerotiorum YC35 assessed as inhibition of mycelial growth after 2 days; assay type: functional, organism-based; conditions: YC35, 48 h
Sclerotinia sclerotiorum [16] = assay: Antifungal activity against carbendazim-resistant and dimethachlon-resistant Sclerotinia sclerotiorum ZJ288-2 assessed as inhibition of mycelial growth after 2 days; assay type: functional, organism-based; conditions: ZJ288-2, 48 h
Sclerotinia sclerotiorum [17] = assay: Antifungal activity against carbendazim and dimethachlon-sensitive Sclerotinia sclerotiorum YZ114 assessed as inhibition of mycelial growth after 2 days; assay type: functional, organism-based; conditions: YZ114, 48 h
Sclerotinia sclerotiorum [18] = assay: Antifungal activity against carbendazim-resistant and dimethachlon-sensitive Sclerotinia sclerotiorum TZ83 assessed as inhibition of mycelial growth after 2 days; assay type: functional, organism-based; conditions: TZ83, 48 h
Sclerotinia sclerotiorum [19] = assay: Antifungal activity against carbendazim-resistant and dimethachlon-sensitive Sclerotinia sclerotiorum ZJ47 assessed as inhibition of mycelial growth after 2 days; assay type: functional, organism-based; conditions: ZJ47, 48 h
Sclerotinia sclerotiorum [20] = assay: Antifungal activity against carbendazim and dimethachlon-sensitive Sclerotinia sclerotiorum YZ116 assessed as inhibition of mycelial growth after 2 days; assay type: functional, organism-based; conditions: YZ116, 48 h
Sclerotinia sclerotiorum [21] = assay: Antifungal activity against Sclerotinia sclerotiorum in oilseed rape field assessed as disease control at 125/ha measured 1 week before harvest; assay type: functional
Sclerotinia sclerotiorum [22] = assay: Antifungal activity against carbendazim and dimethachlon-sensitive Sclerotinia sclerotiorum YZ112 assessed as inhibition of mycelial growth after 2 days; assay type: functional, organism-based; conditions: YZ112, 48 h
Sclerotinia sclerotiorum [23] = assay: Antifungal activity against carbendazim-resistant and dimethachlon-resistant Sclerotinia sclerotiorum CZ57-2 assessed as inhibition of mycelial growth after 2 days; assay type: functional, organism-based; conditions: CZ57-2, 48 h
Sclerotinia sclerotiorum [24] = assay: Antifungal activity against carbendazim-resistant and dimethachlon-sensitive Sclerotinia sclerotiorum SZ48 assessed as inhibition of mycelial growth after 2 days; assay type: functional, organism-based; conditions: SZ48, 48 h
Sclerotinia sclerotiorum [25] = assay: Antifungal activity against Sclerotinia sclerotiorum in PDA plates assessed as inhibition of mycelial growth after 2 days; assay type: functional, organism-based; conditions: 48 h
Sclerotinia sclerotiorum [26] = assay: Antifungal activity against Sclerotinia sclerotiorum in oilseed rape field assessed as disease control at 750/ha measured 1 week before harvest; assay type: functional
Sclerotinia sclerotiorum [27] = assay: Antifungal activity against Sclerotinia sclerotiorum in oilseed rape field assessed as disease control at 690/ha measured 1 week before harvest; assay type: functional

SMILES | EC50 (Sclerotinia sclerotiorum [1]) [µg/mL] | EC50 (Sclerotinia sclerotiorum [2]) [µg/mL] | EC50 (Sclerotinia sclerotiorum [4]) [µg/mL] | EC50 (Sclerotinia sclerotiorum [6]) [µg/mL] | EC50 (Sclerotinia sclerotiorum [7]) [µg/mL] | EC50 (Sclerotinia sclerotiorum [8]) [µg/mL] | EC50 (Sclerotinia sclerotiorum [9]) [µg/mL] | EC50 (Sclerotinia sclerotiorum [12]) [µg/mL] | EC50 (Sclerotinia sclerotiorum [13]) [µg/mL] | EC50 (Sclerotinia sclerotiorum [15]) [µg/mL] | EC50 (Sclerotinia sclerotiorum [16]) [µg/mL] | EC50 (Sclerotinia sclerotiorum [17]) [µg/mL] | EC50 (Sclerotinia sclerotiorum [18]) [µg/mL] | EC50 (Sclerotinia sclerotiorum [19]) [µg/mL] | EC50 (Sclerotinia sclerotiorum [20]) [µg/mL] | EC50 (Sclerotinia sclerotiorum [22]) [µg/mL] | EC50 (Sclerotinia sclerotiorum [23]) [µg/mL] | EC50 (Sclerotinia sclerotiorum [24]) [µg/mL] | also measured
O=C(Nc1ccccc1-c1ccc(Cl)cc1)c1cccnc1Cl [BOSCALID] | 0.115 (≈ 0.335 µM) | 0.181 (≈ 0.527 µM) | 0.186 (≈ 0.542 µM) | 0.18 (≈ 0.524 µM) | 0.195 (≈ 0.568 µM) | 0.223 (≈ 0.65 µM) | 0.262 (≈ 0.763 µM) | 0.17 (≈ 0.495 µM) | 0.163 (≈ 0.475 µM) | 0.195 (≈ 0.568 µM) | 0.126 (≈ 0.367 µM) | 0.195 (≈ 0.568 µM) | 0.19 (≈ 0.554 µM) | 0.188 (≈ 0.548 µM) | 0.195 (≈ 0.568 µM) | 0.211 (≈ 0.615 µM) | 0.183 (≈ 0.533 µM) | 0.168 (≈ 0.489 µM) | Activity (Sclerotinia sclerotiorum [3]): 49.7%; Activity (Sclerotinia sclerotiorum [5]): 75.1%; EC50 (Sclerotinia sclerotiorum [10]): 0.13 µg/mL (≈ 0.379 µM); EC50 (Sclerotinia sclerotiorum [11]): 0.12 µg/mL (≈ 0.35 µM); Activity (Sclerotinia sclerotiorum [14]): 69%; Activity (Sclerotinia sclerotiorum [21]): 65.2%; EC50 (Sclerotinia sclerotiorum [25]): 0.17 µg/mL (≈ 0.495 µM)
COC(=O)Nc1nc2ccccc2[nH]1 [CARBENDAZIM] | > 100 | 0.177 (≈ 0.926 µM) | 0.168 (≈ 0.879 µM) | 0.147 (≈ 0.769 µM) | > 100 | > 100 | > 100 | 0.186 (≈ 0.973 µM) | > 100 | > 100 | > 100 | 0.134 (≈ 0.701 µM) | > 100 | > 100 | 0.137 (≈ 0.717 µM) | 0.106 (≈ 0.554 µM) | > 100 | > 100 | Activity (Sclerotinia sclerotiorum [26]): 18.9%
O=C1CCC(=O)N1c1cc(Cl)cc(Cl)c1 [DIMETHACHLON] | 166 (≈ 682 µM) | 0.321 (≈ 1.32 µM) | 0.406 (≈ 1.66 µM) | 0.397 (≈ 1.63 µM) | 92.4 (≈ 378 µM) | 0.317 (≈ 1.3 µM) | 68 (≈ 279 µM) | 0.351 (≈ 1.44 µM) | 125 (≈ 511 µM) | 0.306 (≈ 1.25 µM) | 86.8 (≈ 356 µM) | 0.365 (≈ 1.5 µM) | 0.335 (≈ 1.37 µM) | 0.367 (≈ 1.5 µM) | 0.346 (≈ 1.42 µM) | 0.401 (≈ 1.64 µM) | 152 (≈ 622 µM) | 0.364 (≈ 1.49 µM) | Activity (Sclerotinia sclerotiorum [27]): 44.6%
